Source: ChEMBL document CHEMBL3774345, “Synthesis of new diarylamides with pyrimidinyl pyridine scaffold and evaluation of their anti-proliferative effect on cancer cell lines” (Bioorg Med Chem Lett, 2016)

Experiments:
HT-29 = assay: Cytotoxicity against human HT-29 cells assessed as cell growth at 10^-4 M after 24 hrs by SRB assay; type: functional; conditions: HT-29, 24 h, read-out: Activity
[1] = Cytotoxicity against human Hs 578T cells assessed as cell growth at 10^-7 M after 24 hrs by SRB assay; type: functional; conditions: read-out: Activity
MDA-MB-231 [2] = assay: Cytotoxicity against human MDA-MB-231 cells assessed as cell growth at 10^-4 M after 24 hrs by SRB assay; type: functional; conditions: MDA-MB-231, 24 h, read-out: Activity
[3] = Cytotoxicity against human BT549 cells assessed as cell growth at 10^-5 M after 24 hrs by SRB assay; type: functional; conditions: BT-549, 24 h, read-out: Activity
MDA-MB-435 = assay: Cytotoxicity against human MDA-MB-435 cells assessed as cell growth at 10^-7 M after 24 hrs by SRB assay; type: functional; conditions: MDA-MB-435, 24 h, read-out: Activity
[4] = Cytotoxicity against human SNB75 cells after 24 hrs by SRB assay; type: functional, cell-based; conditions: SNB-75, 24 h
CCRF-CEM = assay: Cytotoxicity against human CCRF-CEM cells assessed as cell growth at 10^-6 M after 24 hrs by SRB assay; type: functional; conditions: read-out: Activity
T47D = assay: Cytotoxicity against human T47D cells assessed as cell growth at 10^-5 M after 24 hrs by SRB assay; type: functional; conditions: read-out: Activity
[5] = Cytotoxicity against human HCT116 cells assessed as cell growth at 10^-6 M after 24 hrs by SRB assay; type: functional; conditions: HCT-116, 24 h, read-out: Activity
K562 = assay: Cytotoxicity against human K562 cells assessed as cell growth at 10^-6 M after 24 hrs by SRB assay; type: functional; conditions: K562, 24 h, read-out: Activity
[6] = Cytotoxicity against human PC3 cells assessed as cell growth at 10^-5 M after 24 hrs by SRB assay; type: functional; conditions: PC-3, 24 h, read-out: Activity
NCI-H322M [7] = assay: Cytotoxicity against human NCI-H322M cells assessed as cell growth at 10^-5 M after 24 hrs by SRB assay; type: functional; conditions: read-out: Activity
[8] = Cytotoxicity against human HOP62 cells assessed as cell growth at 10^-6 M after 24 hrs by SRB assay; type: functional; conditions: HOP-62, 24 h, read-out: Activity
KM12 [9] = assay: Cytotoxicity against human KM12 cells after 24 hrs by SRB assay; type: functional; conditions: KM12, 24 h
[10] = Cytotoxicity against human SF295 cells assessed as cell growth at 10^-4 M after 24 hrs by SRB assay; type: functional; conditions: SF-295, 24 h, read-out: Activity
[11] = Cytotoxicity against human OVCAR8 cells assessed as cell growth at 10^-7 M after 24 hrs by SRB assay; type: functional; conditions: OVCAR-8, 24 h, read-out: Activity
[12] = Cytotoxicity against human OVCAR3 cells assessed as cell growth at 10^-4 M after 24 hrs by SRB assay; type: functional; conditions: OVCAR-3, 24 h, read-out: Activity
[13] = Cytotoxicity against human SNB19 cells assessed as cell growth at 10^-4 M after 24 hrs by SRB assay; type: functional; conditions: SNB-19, 24 h, read-out: Activity
SR = assay: Cytotoxicity against human SR cells after 24 hrs by SRB assay; type: functional
[14] = Cytotoxicity against human HCT15 cells assessed as cell growth at 10^-5 M after 24 hrs by SRB assay; type: functional; conditions: HCT-15, 24 h, read-out: Activity
[15] = Cytotoxicity against human HCT15 cells assessed as cell growth at 10^-4 M after 24 hrs by SRB assay; type: functional; conditions: HCT-15, 24 h, read-out: Activity
KM12 [16] = assay: Cytotoxicity against human KM12 cells assessed as cell growth at 10^-8 M after 24 hrs by SRB assay; type: functional; conditions: KM12, 24 h, read-out: Activity
NCI-H322M [17] = assay: Cytotoxicity against human NCI-H322M cells assessed as cell growth at 10^-6 M after 24 hrs by SRB assay; type: functional; conditions: read-out: Activity
NCI-H23 = assay: Cytotoxicity against human NCI-H23 cells after 24 hrs by SRB assay; type: functional; conditions: NCI-H23, 24 h
ACHN = assay: Cytotoxicity against human ACHN cells assessed as cell growth at 10^-8 M after 24 hrs by SRB assay; type: functional; conditions: read-out: Activity
M14 = assay: Cytotoxicity against human M14 cells after 24 hrs by SRB assay; type: functional, cell-based; conditions: M14, 24 h
[18] = Cytotoxicity against human BT549 cells assessed as cell growth at 10^-8 M after 24 hrs by SRB assay; type: functional; conditions: BT-549, 24 h, read-out: Activity
[19] = Cytotoxicity against human HL-60(TB) cells assessed as cell growth at 10^-8 M after 24 hrs by SRB assay; type: functional; conditions: HL-60, 24 h, read-out: Activity
KM12 [20] = assay: Cytotoxicity against human KM12 cells assessed as cell growth at 10^-6 M after 24 hrs by SRB assay; type: functional; conditions: KM12, 24 h, read-out: Activity
SK-MEL-5 = assay: Cytotoxicity against human SK-MEL-5 cells assessed as cell growth at 10^-6 M after 24 hrs by SRB assay; type: functional; conditions: SK-MEL-5, 24 h, read-out: Activity
[21] = Cytotoxicity against human SNB19 cells assessed as cell growth at 10^-8 M after 24 hrs by SRB assay; type: functional; conditions: SNB-19, 24 h, read-out: Activity
U-251 = assay: Cytotoxicity against human U251 cells assessed as cell growth at 10^-7 M after 24 hrs by SRB assay; type: functional; conditions: U-251, 24 h, read-out: Activity
[22] = Cytotoxicity against human OVCAR4 cells assessed as cell growth at 10^-8 M after 24 hrs by SRB assay; type: functional; conditions: OVCAR-4, 24 h, read-out: Activity
[23] = Cytotoxicity against human HCC2998 cells assessed as cell growth at 10^-8 M after 24 hrs by SRB assay; type: functional; conditions: HCC 2998, 24 h, read-out: Activity
[24] = Cytotoxicity against human RXF393 cells assessed as cell growth at 10^-5 M after 24 hrs by SRB assay; type: functional; conditions: RXF 393, 24 h, read-out: Activity
MDA-MB-231 [25] = assay: Cytotoxicity against human MDA-MB-231 cells assessed as cell growth at 10^-8 M after 24 hrs by SRB assay; type: functional; conditions: MDA-MB-231, 24 h, read-out: Activity
[26] = read-out: LC50 (the source's name)
[27] = read-out: pLC50 (the source's name) (converted)

Compound: O=C(Nc1cc(-c2cccnc2)nc(NCCCN2CCOCC2)n1)c1cc(Br)cc(C(F)(F)F)c1
- growth at 100 µM (HT-29): -83%
- growth at 0.1 µM [1]: 94%
- growth at 100 µM (MDA-MB-231 [2]): -84%
- growth at 10 µM [3]: 19%
- growth at 0.1 µM (MDA-MB-435): 92%
- IC50 [4]: 1.52 µM
- GI50 ([4]; read-out: GI50): 1.52 µM
- CC50 [4, 26]: 8.46 µM
- TGI ([4]; read-out: TGI): 3.59 µM
- GI50 ([4]; read-out: pGI50 (converted)): 1.51 µM
- CC50 [4, 27]: 8.51 µM
- TGI ([4]; read-out: pTGI (converted)): 3.55 µM
- growth at 1 µM (CCRF-CEM): 103%
- growth at 10 µM (T47D): 21%
- growth at 1 µM [5]: 94%
- growth at 1 µM (K562): 88%
- growth at 10 µM [6]: 23%
- growth at 10 µM (NCI-H322M [7]): 19%
- growth at 1 µM [8]: 88%
- GI50 (KM12 [9]; read-out: GI50): 3.62 µM
- CC50 (KM12 [9]; [26]): 41 µM
- TGI (KM12 [9]; read-out: TGI): 13.6 µM
- GI50 (KM12 [9]; read-out: pGI50 (converted)): 3.63 µM
- CC50 (KM12 [9]; [27]): 40.7 µM
- TGI (KM12 [9]; read-out: pTGI (converted)): 13.5 µM
- growth at 100 µM [10]: -92%
- growth at 0.1 µM [11]: 101%
- growth at 100 µM [12]: -100%
- growth at 100 µM [13]: -84%
- GI50 (SR; read-out: GI50): 2.6 µM
- CC50 (SR; [26]): > 100 µM
- TGI (SR; read-out: TGI): 41.7 µM
- GI50 (SR; read-out: pGI50 (converted)): 2.63 µM
- CC50 (SR; [27]): > 100 µM
- TGI (SR; read-out: pTGI (converted)): 41.7 µM
- growth at 10 µM [14]: -32%
- growth at 100 µM [15]: -96%
- growth at 0.01 µM (KM12 [16]): 99%
- growth at 1 µM (NCI-H322M [17]): 91%
- GI50 (NCI-H23; read-out: GI50): 3.55 µM
- CC50 (NCI-H23; [26]): 46.1 µM
- TGI (NCI-H23; read-out: TGI): 15 µM
- GI50 (NCI-H23; read-out: pGI50 (converted)): 3.55 µM
- CC50 (NCI-H23; [27]): 45.7 µM
- TGI (NCI-H23; read-out: pTGI (converted)): 15.1 µM
- growth at 0.01 µM (ACHN): 95%
- GI50 (M14): 1.66 µM
- CC50 (M14; [26]): 6.59 µM
- TGI (M14; read-out: TGI): 3.32 µM
- CC50 (M14; [27]): 6.61 µM
- TGI (M14; read-out: pTGI (converted)): 3.31 µM
- growth at 0.01 µM [18]: 95%
- growth at 0.01 µM [19]: 100%
- growth at 1 µM (KM12 [20]): 96%
- growth at 1 µM (SK-MEL-5): 91%
- growth at 0.01 µM [21]: 97%
- growth at 0.1 µM (U-251): 97%
- growth at 0.01 µM [22]: 95%
- growth at 0.01 µM [23]: 96%
- growth at 10 µM [24]: -73%
- growth at 0.01 µM (MDA-MB-231 [25]): 90%
